# Literature values, collected in patent US6485708B1, “Products and methods for the remineralization and prevention of demineralization of teeth” (Church & Dwight Co. Inc., priority 1999, dated 2002).
# Conditions: aqueous solution, pH about 7.0, about 25° C.
compound,measurement,value
O.O.O=P([O-])([O-])O.[Ca+2] [dicalcium phosphate dihydrate],calcium cations released,about 40 ppm
